From the NIST ThermoML archive (doi:10.1016/j.jct.2010.06.011)

Experiment: xn = mol fraction of the nth substance listed
Conditions: Liquid, Vibrating tube method

COC(=O)OC [dimethyl carbonate] + CCCCCC
mass density [kg/m3]
Conditions	100 kPa	5000 kPa	10000 kPa	20000 kPa	30000 kPa	40000 kPa
303.15 K, x1 = 0.1	–	–	–	695.6	704.3	712.2
303.15 K, x1 = 0.2	–	–	–	723.3	732.2	740.2
303.15 K, x1 = 0.3	–	–	–	753.7	762.7	770.9
303.15 K, x1 = 0.4	–	–	–	787.2	796.3	804.6
303.15 K, x1 = 0.5	–	–	–	824.1	833.3	841.6
303.15 K, x1 = 0.6	–	–	–	865	874.1	882.3
303.15 K, x1 = 0.7	–	–	–	909.8	918.7	926.9
303.15 K, x1 = 0.8	–	–	–	959.7	968.5	976.5
303.15 K, x1 = 0.9	–	–	–	1015.1	1023.6	1031.4
303.15 K, x1 = 0.95	–	–	–	1044.2	1052.6	1060.2
303.15 K, x1 = 1	–	–	–	1074.7	1082.9	1090.4
308.15 K, x1 = 0.1	669.8	675.7	681.4	691.5	700.6	708.6
308.15 K, x1 = 0.2	696.9	703	708.7	719	728.3	736.4
308.15 K, x1 = 0.3	727	733.1	738.8	749.3	758.7	766.9
308.15 K, x1 = 0.4	760.2	766.3	772	782.6	792.1	800.4
308.15 K, x1 = 0.5	796.9	802.9	808.7	819.2	828.8	837.2
308.15 K, x1 = 0.6	837.4	843.8	849.5	859.9	869.4	877.7
308.15 K, x1 = 0.7	882.5	888.6	894.2	904.4	913.8	922.1
308.15 K, x1 = 0.8	932.8	938.7	944.1	954.1	963.2	971.5
308.15 K, x1 = 0.9	989.2	994.6	999.7	1009.3	1018.1	1026.1
308.15 K, x1 = 0.95	1018.8	1023.8	1028.8	1038.1	1046.8	1054.7
308.15 K, x1 = 1	1049.8	1054.6	1059.4	1068.5	1077	1084.8
313.15 K, x1 = 0.1	664.8	671.1	677	687.5	696.7	705
313.15 K, x1 = 0.2	691.7	698	704.1	714.7	724.2	732.6
313.15 K, x1 = 0.3	721.5	727.8	733.9	744.7	754.3	762.9
313.15 K, x1 = 0.4	754.5	760.9	767	777.9	787.5	796.3
313.15 K, x1 = 0.5	791	797.4	803.4	814.3	824	832.8
313.15 K, x1 = 0.6	831.4	837.6	843.7	854.5	864.1	872.9
313.15 K, x1 = 0.7	876.3	882.4	888.3	898.9	908.5	917.2
313.15 K, x1 = 0.8	926.4	932.2	937.9	948.2	957.6	966.1
313.15 K, x1 = 0.9	982.5	988	993.4	1003.2	1012.2	1020.6
313.15 K, x1 = 0.95	1012.1	1017.4	1022.5	1032.1	1041	1049.1
313.15 K, x1 = 1	1043	1048.1	1053	1062.3	1071	1079
